{"source": "paper PMC9962964", "about": "“^68Ga-Labeled [Thz^14]Bombesin(7–14) Analogs: Promising GRPR-Targeting Agonist PET Tracers with Low Pancreas Uptake” (Molecules, 2023)", "key": {"[1]": {"details": "pH 7.4", "method": "Briefly, aliquots (2 μL) of the ^68Ga-labeled peptides were added into a 15 mL falcon tube containing 3 mL of n-octanol and 3 mL of 0.1 mol/L DPBS (pH 7.4). The mixture was vortexed for 1 min and then centrifuged at 3000 rpm for 15 min. Samples of the n-octanol (1 mL) and buffer (1 mL) layers were collected and measured in a gamma counter. LogD7.4 was calculated using the following equation: LogD7.4 = log10 [(counts in the n-octanol phase)/(counts in the buffer phase)]."}, "[2]": {"assay": "Ex vivo biodistribution in PC-3 tumor-bearing mice", "set-up": "species or system NRG mice", "details": "mouse; for tissue to tissue ratio at 1 h: male, NRG (NOD.Cg-Rag1^tm1Mom Il2rg^tm1Wjl/SzJ), iv, total radioactivity; for tissue uptake at 1 h: intravenous", "method": "(§1) For biodistribution studies, the mice were injected with the radiotracer (2–4 MBq) via the tail vein as described above. For blocking, the mice were co-injected with 100 μg of [D-Phe^6,Leu-NHEt^13,des-Met^14]Bombesin(6–14). At 1 h post-injection, the mice were anesthetized through isoflurane inhalation and euthanized through CO2 inhalation. Blood was collected through a cardiac puncture, and organs/tissues of interest were collected, weighed, and counted using a Perkin Elmer (Waltham, MA, USA) Wizard2 2480 automatic gamma counter."}, "PC-3 tumor xenografts [3]": {"test_system": "PC-3 tumor xenografts", "assay": "Ex vivo biodistribution in PC-3 tumor-bearing mice", "set-up": "species or system NRG mice", "method": "as §1"}, "[4]": {"details": "15 min post-injection", "method": "PET/CT imaging, biodistribution, and in vivo stability studies were conducted on male NOD.Cg-Rag1^tm1Mom Il2rg^tm1Wjl/SzJ (NRG) mice, following previously published procedures. The experiments were conducted according to the guidelines established by the Canadian Council on Animal Care and approved by the Animal Ethics Committee of the University of British Columbia (protocol number A20-0113, approved on 30 September 2020). […] Mice were used for PET/CT imaging and biodistribution studies when the tumor grew to 5–8 mm in diameter over around 4 weeks.\nAt 15 min post-injection, mice were sedated and euthanized, and urine and blood were collected. The plasma was extracted from whole blood by adding CH3CN (500 μL), vortex, centrifugation, and the separation of supernatant. The plasma and urine samples were analyzed via radio-HPLC using the conditions for quality control of these ^68Ga-labeled radioligands (Table S3)."}, "PC-3 tumor xenografts [5]": {"test_system": "PC-3 tumor xenografts", "assay": "PET/CT imaging of PC-3 tumor xenografts", "assay_type": "in vivo, NRG mice", "details": "1 h post-injection", "method": "PET/CT imaging experiments were performed on a Siemens (Knoxville, TN) Inveon micro PET/CT scanner. The tumor-bearing mouse was injected with 3–5 MBq of ^68Ga-labeled tracer through a lateral caudal tail vein under anesthesia, followed by recovery and roaming freely in its cage during the uptake period. At 50 min post-injection, a 10 min CT scan was conducted first for the localization and attenuation correction after segmentation for reconstructing the PET images, followed by a 10 min static PET imaging acquisition."}, "[6]": {"details": "co-injection of 100 μg [D-Phe6,Leu-NHEt13,des-Met14]Bombesin(6–14), 1 h post-injection"}}, "note": "Like-named read-outs stand apart in the source and are kept apart here."}
{"smiles": "CC(C)C[C@H](NC(=O)[C@H](Cc1c[nH]cn1)NC(=O)CNC(=O)[C@@H](NC(=O)[C@H](C)NC(=O)[C@H](Cc1c[nH]c2ccccc12)NC(=O)[C@H](CCC(N)=O)NC(=O)[C@@H](Cc1ccccc1)NC(=O)CN1CCC(NC(=O)CN2CCN(CC(=O)O)CCN(CC(=O)O)CCN(CC(=O)O)CC2)CC1)C(C)C)C(=O)N1CSC[C@H]1C(N)=O", "note": "[[^68Ga]Ga-TacBOMB2, metal not drawn]", "values": [{"measurement": "logD", "setting": "[1]", "value": "-3.21 ± 0.03"}, {"measurement": "tissue to tissue ratio at 1 h", "setting": "[2]; tumor and bone, 1 h blocked: co-injected with 100 µg of [D-Phe6,Leu-NHEt13,des-Met14]Bombesin(6-14), n = 4, read-out: Tumor/bone uptake ratio", "value": "8.94 ± 1.49"}, {"measurement": "tissue to tissue ratio at 1 h", "setting": "[2]; tumor and bone, 1 h post-injection, n = 4, read-out: Tumor/bone uptake ratio", "value": "28.9 ± 18.3"}, {"measurement": "tissue to tissue ratio at 1 h", "setting": "[2]; tumor and intestines, 1 h blocked: co-injected with 100 µg of [D-Phe6,Leu-NHEt13,des-Met14]Bombesin(6-14), n = 4, read-out: Tumor/intestines uptake ratio", "value": "3.33 ± 0.67"}, {"measurement": "tissue to tissue ratio at 1 h", "setting": "[2]; tumor and intestines, 1 h post-injection, n = 4, read-out: Tumor/intestines uptake ratio", "value": "10.5 ± 3.06"}, {"measurement": "tissue to tissue ratio at 1 h", "setting": "[2]; tumor and kidney, 1 h blocked: co-injected with 100 µg of [D-Phe6,Leu-NHEt13,des-Met14]Bombesin(6-14), n = 4, read-out: Tumor/kidney uptake ratio", "value": "0.47 ± 0.04"}, {"measurement": "tissue to tissue ratio at 1 h", "setting": "[2]; tumor and kidney, 1 h post-injection, n = 4, read-out: Tumor/kidney uptake ratio", "value": "2.46 ± 0.33"}, {"measurement": "tissue to tissue ratio at 1 h", "setting": "[2]; tumor and muscle, 1 h blocked: co-injected with 100 µg of [D-Phe6,Leu-NHEt13,des-Met14]Bombesin(6-14), n = 4, read-out: Tumor/muscle uptake ratio", "value": "7.14 ± 1.4"}, {"measurement": "tissue to tissue ratio at 1 h", "setting": "[2]; tumor and muscle, 1 h post-injection, n = 4, read-out: Tumor/muscle uptake ratio", "value": "57.9 ± 32.8"}, {"measurement": "tissue to tissue ratio at 1 h", "setting": "[2]; tumor and pancreas, 1 h blocked: co-injected with 100 µg of [D-Phe6,Leu-NHEt13,des-Met14]Bombesin(6-14), n = 4, read-out: Tumor/pancreas uptake ratio", "value": "6.22 ± 0.67"}, {"measurement": "tissue to tissue ratio at 1 h", "setting": "[2]; tumor and pancreas, 1 h post-injection, n = 4, read-out: Tumor/pancreas uptake ratio", "value": "4.64 ± 0.77"}, {"measurement": "tissue to tissue ratio at 1 h", "setting": "[2]; tumor and whole blood, 1 h post-injection, n = 4, read-out: Tumor/blood uptake ratio", "value": "16.4 ± 5.64"}, {"measurement": "tissue uptake at 1 h", "setting": "[2]; PC-3 tumor, 100 ug, 1 h blocked: co-injected with 100 µg of [D-Phe6,Leu-NHEt13,des-Met14]Bombesin(6-14), n = 4, read-out: PC-3 tumor uptake", "value": "0.92 ± 0.22", "unit": "%ID/g"}, {"measurement": "tissue uptake at 1 h", "setting": "[2]; PC-3 tumor, 1 h post-injection, n = 4, read-out: PC-3 tumor uptake", "value": "5.95 ± 0.5", "unit": "%ID/g"}, {"measurement": "tissue uptake at 1 h", "setting": "[2]; blood, 100 ug, 1 h blocked: co-injected with 100 µg of [D-Phe6,Leu-NHEt13,des-Met14]Bombesin(6-14), n = 4, read-out: Blood uptake", "value": "0.55 ± 0.19", "unit": "%ID/g"}, {"measurement": "tissue uptake at 1 h", "setting": "[2]; blood, 1 h post-injection, n = 4, read-out: Blood uptake", "value": "0.39 ± 0.12", "unit": "%ID/g"}, {"measurement": "tissue uptake at 1 h", "setting": "[2]; bone, 100 ug, 1 h blocked: co-injected with 100 µg of [D-Phe6,Leu-NHEt13,des-Met14]Bombesin(6-14), n = 4, read-out: Bone uptake", "value": "0.1 ± 0.03", "unit": "%ID/g"}, {"measurement": "tissue uptake at 1 h", "setting": "[2]; bone, 1 h post-injection, n = 4, read-out: Bone uptake", "value": "0.26 ± 0.11", "unit": "%ID/g"}, {"measurement": "tissue uptake at 1 h", "setting": "[2]; brain, 100 ug, 1 h blocked: co-injected with 100 µg of [D-Phe6,Leu-NHEt13,des-Met14]Bombesin(6-14), n = 4, read-out: Brain uptake", "value": 0.02, "unit": "%ID/g"}, {"measurement": "tissue uptake at 1 h", "setting": "[2]; brain, muscle, fat, bone, liver, stomach, heart, and spleen, 1 h post-injection, read-out: Uptake values for the brain, muscle, fat, bone, liver, stomach, heart, and spleen", "value": "< 1", "unit": "%ID/g"}, {"measurement": "tissue uptake at 1 h", "setting": "[2]; fat, 100 ug, 1 h blocked: co-injected with 100 µg of [D-Phe6,Leu-NHEt13,des-Met14]Bombesin(6-14), n = 4, read-out: Fat uptake", "value": "0.07 ± 0.02", "unit": "%ID/g"}, {"measurement": "tissue uptake at 1 h", "setting": "[2]; fat, 1 h post-injection, n = 4, read-out: Fat uptake", "value": "0.1 ± 0.03", "unit": "%ID/g"}, {"measurement": "tissue uptake at 1 h", "setting": "[2]; heart, 100 ug, 1 h blocked: co-injected with 100 µg of [D-Phe6,Leu-NHEt13,des-Met14]Bombesin(6-14), n = 4, read-out: Heart uptake", "value": "0.16 ± 0.04", "unit": "%ID/g"}, {"measurement": "tissue uptake at 1 h", "setting": "[2]; heart, 1 h post-injection, n = 4, read-out: Heart uptake", "value": "0.14 ± 0.02", "unit": "%ID/g"}, {"measurement": "tissue uptake at 1 h", "setting": "[2]; intestines, 100 ug, 1 h blocked: co-injected with 100 µg of [D-Phe6,Leu-NHEt13,des-Met14]Bombesin(6-14), n = 4, read-out: Intestines uptake", "value": "0.28 ± 0.07", "unit": "%ID/g"}, {"measurement": "tissue uptake at 1 h", "setting": "[2]; intestines, 1 h post-injection, n = 4, read-out: Intestines uptake", "value": "0.6 ± 0.12", "unit": "%ID/g"}, {"measurement": "tissue uptake at 1 h", "setting": "[2]; kidneys, 100 ug, 1 h blocked: co-injected with 100 µg of [D-Phe6,Leu-NHEt13,des-Met14]Bombesin(6-14), n = 4, read-out: Kidneys uptake", "value": "1.99 ± 0.59", "unit": "%ID/g"}, {"measurement": "tissue uptake at 1 h", "setting": "[2]; kidneys, 1 h post-injection, n = 4, read-out: Kidneys uptake", "value": "2.43 ± 0.16", "unit": "%ID/g"}, {"measurement": "tissue uptake at 1 h", "setting": "[2]; lungs, 100 ug, 1 h blocked: co-injected with 100 µg of [D-Phe6,Leu-NHEt13,des-Met14]Bombesin(6-14), n = 4, read-out: Lungs uptake", "value": "0.39 ± 0.1", "unit": "%ID/g"}, {"measurement": "tissue uptake at 1 h", "setting": "[2]; lungs, 1 h post-injection, n = 4, read-out: Lungs uptake", "value": "0.39 ± 0.1", "unit": "%ID/g"}, {"measurement": "tissue uptake at 1 h", "setting": "[2]; pancreas, 100 ug, 1 h blocked: co-injected with 100 µg of [D-Phe6,Leu-NHEt13,des-Met14]Bombesin(6-14), n = 4, read-out: Pancreas uptake", "value": "0.15 ± 0.03", "unit": "%ID/g"}, {"measurement": "tissue uptake at 1 h", "setting": "[2]; pancreas, 1 h post-injection, n = 4, read-out: Pancreas uptake", "value": "1.3 ± 0.14", "unit": "%ID/g"}, {"measurement": "tissue uptake at 1 h", "setting": "[2]; spleen, 100 ug, 1 h blocked: co-injected with 100 µg of [D-Phe6,Leu-NHEt13,des-Met14]Bombesin(6-14), n = 4, read-out: Spleen uptake", "value": "0.18 ± 0.05", "unit": "%ID/g"}, {"measurement": "tissue uptake at 1 h", "setting": "[2]; spleen, 1 h post-injection, n = 4, read-out: Spleen uptake", "value": "0.27 ± 0.1", "unit": "%ID/g"}, {"measurement": "tissue uptake at 1 h", "setting": "[2]; stomach, 100 ug, 1 h blocked: co-injected with 100 µg of [D-Phe6,Leu-NHEt13,des-Met14]Bombesin(6-14), n = 4, read-out: Stomach uptake", "value": "0.13 ± 0.06", "unit": "%ID/g"}, {"measurement": "tissue uptake at 1 h", "setting": "[2]; testes, 100 ug, 1 h blocked: co-injected with 100 µg of [D-Phe6,Leu-NHEt13,des-Met14]Bombesin(6-14), n = 4, read-out: Testes uptake", "value": "0.21 ± 0.16", "unit": "%ID/g"}, {"measurement": "Tumor/blood uptake ratio", "setting": "PC-3 tumor xenografts [3]; 1 h blocked: co-injected with 100 µg of [D-Phe6,Leu-NHEt13,des-Met14]Bombesin(6-14), n = 4", "value": "1.71 ± 0.18"}, {"measurement": "reduction of average uptake in PC-3 tumor xenografts by co-injection of blocker", "setting": "PC-3 tumor xenografts [3]; [6]", "value": 85, "unit": "%"}, {"measurement": "reduction of average uptake in pancreas by co-injection of blocker", "setting": "PC-3 tumor xenografts [3]; [6]", "value": 88, "unit": "%"}, {"measurement": "reduction of average uptake in stomach by co-injection of blocker", "setting": "PC-3 tumor xenografts [3]; [6]", "value": 76, "unit": "%"}, {"measurement": "intact fraction in plasma", "setting": "[4]; mouse plasma, n = 3", "value": "12.7 ± 2.93", "unit": "%"}, {"measurement": "intact tracer in urine", "setting": "[4]; mouse urine", "value": "no intact"}, {"measurement": "visualization of PC-3 tumor xenografts in PET images", "setting": "PC-3 tumor xenografts [5]", "value": "clearly visualized"}, {"measurement": "excretion pathway", "setting": "PC-3 tumor xenografts [5]; PET images", "value": "primarily excreted via the renal pathway"}]}
